One test deals with human TH17 cells. Nature of the test: Inhibition of IL-17 release from human TH17 cells. In kind it is cell-based. The note with it: 96 h; isolated human TH17 cells cultured 4 days, IL-17A in supernatant by HTRF; read-out: pIC50 IL-17 release (converted). The source says: Inhibition of IL-17 Release from Human TH17 Cells
This test is designed to screen compounds for their inhibitory effect on the release of IL-17 from isolated and cultured human TH17 cells.
Peripheral blood mononuclear cells (PBMC) were isolated from heparin treated human whole blood from healthy donors by density gradient centrifugation. TH17 cells (CD4+CXCR3−CCR6+) were enriched using a human TH17 Cell Enrichment Kit (Stemcell Technologies) according to the manufacturer's protocol. The isolated TH17 cells were activated with aCD3aCD28 beads (MACS Miltenyi) and cultured in X-Vivo15 medium (Lonza) supplemented with L-glutamine, β-mercaptoethanol and a cytokine cocktail consisting of; IL-2, IL-23, IL-1β, IL-6, TGF-β. Cells were seeded at 8000 cells/well in a 384-plate (Corning, #3707) in the presence of compounds or DMSO and cultured for 4 days (37° C., 5% CO2). On day 4 supernatants were collected and IL-17A was measured using a Human IL-17 HTRF Assay kit (Cisbio Bioassays) according to the manufacturer's protocol. The IC50 values for the tested compounds was calculated using Genedata Screener® software (Genedata) using the following calculation method; Compound % effect=100*[(X−min)/(max−min)], where X represents the normalized value for the compound based on the Min (DMSO) and Max (compound 3-(1,3-benzodioxol-5-yl)-1-(3,5-dimethylpiperidin-1-yl)-3-(2-hydroxy-4,6-dimethoxyphenyl)propan-1-one at 10 μM, described in J. R. Hu et al. ACS Med. Chem. Lett. 2013, 4, 79-84) inhibition controls. Results
(In general: In TR-FRET formats the signal depends on donor and acceptor labels being close together.)

The target of test [1] is T1, RORγ ligand binding domain (Homo sapiens, UniProt P51449). Nature of the test: RORγ co-factor recruitment assay (FRET). In kind it is biochemical. The following applies: inhibition of recruitment of SRC-1 peptide (NCOA1_677-700) to hRORγ LBD, HTRF read-out. On the set-up: made in house; host or cells: E. coli BL21DE3 Star. The text has this:
RORγ Co-Factor Recruitment Assay A high throughput coactivator binding assay for the identification of inverse agonists of the recruitment of peptide SRC-1 (NCOA1_677-_700) to the RORγ ligand binding domain was established. The ligand binding domain (LBD) of human RORγ was expressed in E. coli (BL21DE3 Star) as a fusion protein: N-6×HN-MBP-Avi-TCS-hRORγLBD(P260-K518) subcloned into pET24a(+). The LBD (P260-K518) is underlined in the protein sequence: The assay was run in black 384 well plates (Greiner cat no: 784900). Various concentrations of test ligands in 0.1 microlitres DMSO were dispensed to assay plates using an Echo acoustic dispenser. Two pre-mixes were prepared and incubated for 1 h at room temp in the dark. Pre-mix 1 comprised 100 nM Protein (Biotinylated HN-Avi-MBP-TCS-hRORγ (258-518)) and 60 nM Streptavidin APC in assay buffer, 50 mM MOPS pH7.4, 50 mM KF, 0.003% (w/v) CHAPS, 10 mM DTT and 0.01% (w/v) BSA and pre-mix 2 comprised 160 nM biotinylated SRC-1 peptide (NCOA1-677-700) and 20 nM Europium-W8044 labelled Streptavidin in assay buffer. Five microlitres of pre-mix 2 was dispensed to assay plates containing 0.1 microlitres of test compound and was incubated for 15 min prior to adding five microlitres of pre-mix 1. Plates were incubated at rt for 1 hour in the dark, prior to reading in a Pherastar multi-mode plate reader using HTRF filter set (ex 320, em 612 and 665). The FRET signal at 665 nm was divided by the signal at 612 nm and multiplied by 10,000 to generate a signal ratio value for each well. The raw data was transformed to % effect using the equation: Compound % effect=100*[(X−min)/(max−min)], where X represents the normalized value for the compound based on the Min (vehicle) and Max (reference compound) inhibition control. The concentration of test ligand that inhibited the activity by 50% (i.e., the IC50) was calculated by plotting the % effect versus test ligand concentration and fitting the data using the Genedata Screener Smart fit algorithm.

In test [2] the target is T1, RORγ ligand binding domain. Nature of the test: RORγ radioligand competition binding assay (SPA). The note with it: competition with tritiated 2-(4-(ethylsulfonyl)phenyl)-N-(4-(2-(methoxymethyl)phenyl)thiophen-2-yl)acetamide (25 nM), hRORγ LBD. The text has this: RORγ Radioligand Competition Binding Assay The aim of this assay is to identify compounds which bind to the RORγ ligand binding domain, by competing with tritiated 2-(4-(ethylsulfonyl)phenyl)-N-(4-(2-(methoxymethyl)phenyl)thiophen-2-yl)acetamide. Human RORγ (Ligand Binding Domain (RORγ LBD) was expressed in E. coli (BL21DE3 Star) as a fusion protein: N-6×HN-Avi-GST-TCS-hRORγ LBD (S258-K518) subcloned into pET24a(+). The LBD (258-518) is underlined in the protein sequence: The scintillation proximity assay (SPA) was run in white polystyrene flat-bottom 384-well plates (Greiner, cat. No. 781075). Assays were carried out in 40 μl reaction volumes. Various concentrations of test ligands in 0.4 microlitres of DMSO were added to assay plates using an acoustic liquid dispenser. 4 nM purified N-(HN)6-GST-TCS-hRORγ (258-518) was mixed with 40 micrograms Yttrium oxide (YOx) glutathione SPA imaging beads in assay buffer (20 mM Tris, 150 mM NaCl, 10% Glycerol, 0.25% CHAPS, 1 mM TCEP) prior to adding 30 microlitres to test ligands. Assay plates were incubated for one hour at room temperature before adding 10 microlitres tritiated 2-(4-(ethylsulfonyl)phenyl)-N-(4-(2-(methoxymethyl)phenyl)thiophen-2-yl)acetamide to test plates in assay buffer (final concentration, 25 nM). Test plates were incubated for 16 hours and read using a LEADseeker Multimodality imaging instrument. The raw data was analysed and IC50 and Ki values for the compounds were calculated using Genedata Screener software. Raw data was transformed to % effect using equation 1: Compound % effect=100*[(X−min)/(max−min)], where X represents the normalized value for the compound based on the Min (vehicle) and Max (reference compound) inhibition controls. The concentration of test ligand that inhibited radioligand binding by 50% (i.e., the IC50) was calculated by plotting the % effect versus test ligand concentration and fitting the data using the Genedata Screener Smart fit algorithm. Ki is calculated from the IC50 value using the equation Ki=IC50/1+[L]/Kd) where [L]=25 nmol/L and Kd=17 nmol/L
Background: Displacement assays read how much labelled ligand stays bound in the presence of the test substance.

Take `N#CC(c1ccc(NC(=O)C2NCc3cc(S(=O)(=O)CC4CC4)ccc32)cc1)(C(F)(F)F)C(F)(F)F` (stereo not drawn) [Example 12, N-[4-(2-Cyano-1,1,1,3,3,3-hexafluoropropan-2-yl)phenyl]-5-[(cyclopropylmethyl)sulfonyl]-2,3-dihydro-1H-isoindole-1-carboxamide]: the values for the IC50 (in the test with human TH17 cells; in test [1]; in test [2]) were 25.1 nM, 100 nM and 7.94 nM, respectively.
For `CC(=O)N1Cc2cc(S(C)(=O)=O)ccc2C1C(=O)Nc1ccc(C(CC(=O)N(C)C)(C(F)(F)F)C(F)(F)F)cc1` (stereo not drawn) [Example 42, 2-Acetyl-N-{4-[4-(dimethylamino)-1,1,1-trifluoro-4-oxo-2-(trifluoromethyl)butan-2-yl]phenyl}-5-(methylsulfonyl)-2,3-dihydro-1H-isoindole-1-carboxamide], the results for the IC50 (with human TH17 cells; in test [1]; in test [2]) were 794 nM, 316 nM and 794 nM, respectively.
For `CC(=O)N1Cc2cc(S(C)(=O)=O)ccc2C1C(=O)Nc1ccc(C(c2nnn(C)n2)(C(F)(F)F)C(F)(F)F)cc1` (stereo not drawn) [Example 30, 2-Acetyl-N-{4-[1,1,1,3,3,3-hexafluoro-2-(2-methyl-2H-tetrazol-5-yl)propan-2-yl]phenyl}-5-(methylsulfonyl)-2,3-dihydro-1H-isoindole-1-carboxamide], the results for the IC50 (in the test on human TH17 cells; in test [1]; in test [2]) were 25.1 nM, 126 nM and 39.8 nM, respectively.
Regarding `CC(=O)N1Cc2cc(S(C)(=O)=O)ccc2C1C(=O)Nc1ccc(C(CC#N)(C(F)(F)F)C(F)(F)F)cc1` (stereo not drawn) [Example 36, 2-Acetyl-N-{4-[2-(cyanomethyl)-1,1,1,3,3,3-hexafluoropropan-2-yl]phenyl}-5-(methylsulfonyl)-2,3-dihydro-1H-isoindole-1-carboxamide], the IC50 is 63.1 nM in the test on human TH17 cells, 100 nM in test [1] and 158 nM in test [2].
In the same order, the values of `COC1(CNC(c2ccc(NC(=O)C3c4ccc(S(C)(=O)=O)cc4CN3C(C)=O)cc2)(C(F)(F)F)C(F)(F)F)CC1` (stereo not drawn) [Example 18, 2-Acetyl-N-[4-(1,1,1,3,3,3-hexafluoro-2-{[(1-methoxycyclopropyl)methyl]amino}propan-2-yl)phenyl]-5-(methylsulfonyl)-2,3-dihydro-1H-isoindole-1-carboxamide] are 25.1 nM, 200 nM and 50.1 nM.
Taken in the same sequence, the figures for `CC(=O)N1Cc2cc(S(C)(=O)=O)ccc2C1C(=O)Nc1ccc(C(CC(=O)NC2CC2)(C(F)(F)F)C(F)(F)F)cc1` (stereo not drawn) [Example 38, 2-Acetyl-N-{4-[4-(cyclopropylamino)-1,1,1-trifluoro-4-oxo-2-(trifluoromethyl)butan-2-yl]phenyl}-5-(methylsulfonyl)-2,3-dihydro-1H-isoindole-1-carboxamide] were 1000 nM, 631 nM and 794 nM.
For the compound `CNC(=O)N1Cc2cc(S(C)(=O)=O)ccc2C1C(=O)Nc1ccc(C(C#N)(C(F)(F)F)C(F)(F)F)cc1` (stereo not drawn) [Example 4, N^1-[4-(2-Cyano-1,1,1,3,3,3-hexafluoropropan-2-yl)phenyl]-N^2-methyl-5-(methylsulfonyl)-1,3-dihydro-2H-isoindole-1,2-dicarboxamide], the values for the IC50 (in the test on human TH17 cells; in test [1]; in test [2]) were 7.94 nM, 63.1 nM and 12.6 nM, respectively.
Taken in the same sequence, the figures for `CC(=O)N1Cc2cc(S(C)(=O)=O)ccc2C1C(=O)Nc1ccc(C(NC2COC2)(C(F)(F)F)C(F)(F)F)cc1` (stereo not drawn) [Example 19, 2-Acetyl-N-{4-[1,1,1,3,3,3-hexafluoro-2-(oxetan-3-ylamino)propan-2-yl]phenyl}-5-(methylsulfonyl)-2,3-dihydro-1H-isoindole-1-carboxamide] were 50.1 nM, 100 nM and 126 nM.
Take `CS(=O)(=O)c1ccc2c(c1)CNC2C(=O)Nc1ccc(C(C#N)(C(F)(F)F)C(F)(F)F)cc1` (stereo not drawn) [Example 1, N-[4-(2-Cyano-1,1,1,3,3,3-hexafluoropropan-2-yl)phenyl]-5-(methylsulfonyl)-2,3-dihydro-1H-isoindole-1-carboxamide]: the IC50 was 100 nM in the test with human TH17 cells, 126 nM in test [1] and 200 nM in test [2].
For `CC(=O)N1Cc2cc(S(C)(=O)=O)ccc2C1C(=O)Nc1ccc(C(CC(=O)NC(C)(C)C)(C(F)(F)F)C(F)(F)F)cc1` (stereo not drawn) [Example 43, 2-Acetyl-N-{4-[4-(tert-butylamino)-1,1,1-trifluoro-4-oxo-2-(trifluoromethyl)butan-2-yl]phenyl}-5-(methylsulfonyl)-2,3-dihydro-1H-isoindole-1-carboxamide], the IC50 is 251 nM with human TH17 cells, 158 nM in test [1] and 794 nM in test [2].
Taken in the same sequence, the figures for `CS(=O)(=O)c1ccc2c(c1)CN(C(=O)CO)C2C(=O)Nc1ccc(C(C#N)(C(F)(F)F)C(F)(F)F)cc1` (stereo not drawn) [Example 5, N-[4-(2-Cyano-1,1,1,3,3,3-hexafluoropropan-2-yl)phenyl]-2-(hydroxyacetyl)-5-(methylsulfonyl)-2,3-dihydro-1H-isoindole-1-carboxamide] were 10 nM, 50.1 nM and 12.6 nM.
In the same order, the values of `CC(=O)N1Cc2cc(S(C)(=O)=O)ccc2C1C(=O)Nc1ccc(C(N2CCOCC2)(C(F)(F)F)C(F)(F)F)cc1` (stereo not drawn) [Example 23, 2-Acetyl-N-{4-[1,1,1,3,3,3-hexafluoro-2-(morpholin-4-yl)propan-2-yl]phenyl}-5-(methylsulfonyl)-2,3-dihydro-1H-isoindole-1-carboxamide] are 15.8 nM, 39.8 nM and 20 nM.

The record behind these values is US11034654B2, “2,3-dihydroisoindole-1-carboxamides useful as ROR-gamma modulators” (AstraZeneca AB, priority 2017, dated 2021).
